# Like-named read-outs stand apart in the source and are kept apart here.
# Experiments:
# [1] = target: FynT enzyme (Homo sapiens (Human), UniProt P06241); test: FynT enzyme activity (IMAP fluorescence polarization assay); assay type: biochemical; conditions: 60 min pre-incubation, 0.2 μM ATP
# Protocol: FynT enzyme activity is measured using the IMAP (immobilized metal ion affinity-based fluorescence polarization) assay as outlined below.
# Test compounds and FynT enzyme are pre-incubated 60 minutes at room temperature, before adding 5 μL/well of 400 nM Fluorescin labeled substrate peptide (p34cdc2 substrate peptide, e.g. #R7157/#R7172, Molecular Devices) in KR-buffer. Final peptide substrate concentration in assay is 100 nM. […] Following incubation for 2 h at room temperature the enzyme reaction is stopped by adding 40 μL/well IMAP Progressive Binding Solution (according to suppliers (Molecular Devices) protocol using 75% 1× buffer A and 25% 1× buffer B with 1:600 Progressive Binding Solution). After 60 min incubation at room temperature in the dark the FP signal is read. […] Values are calculated as percentage of the difference in readout (ΔmPi) of the controls with and without ATP. EC50 values are determined by curve fitting of the experimental results using Activity Base.
# [2] = target: Btk enzyme (His-Btk) (Homo sapiens (Human), UniProt Q06187); test: Btk enzyme activity (IMAP fluorescence polarization assay)
# Chain of Btk enzyme (His-Btk) (Q06187 whole entry): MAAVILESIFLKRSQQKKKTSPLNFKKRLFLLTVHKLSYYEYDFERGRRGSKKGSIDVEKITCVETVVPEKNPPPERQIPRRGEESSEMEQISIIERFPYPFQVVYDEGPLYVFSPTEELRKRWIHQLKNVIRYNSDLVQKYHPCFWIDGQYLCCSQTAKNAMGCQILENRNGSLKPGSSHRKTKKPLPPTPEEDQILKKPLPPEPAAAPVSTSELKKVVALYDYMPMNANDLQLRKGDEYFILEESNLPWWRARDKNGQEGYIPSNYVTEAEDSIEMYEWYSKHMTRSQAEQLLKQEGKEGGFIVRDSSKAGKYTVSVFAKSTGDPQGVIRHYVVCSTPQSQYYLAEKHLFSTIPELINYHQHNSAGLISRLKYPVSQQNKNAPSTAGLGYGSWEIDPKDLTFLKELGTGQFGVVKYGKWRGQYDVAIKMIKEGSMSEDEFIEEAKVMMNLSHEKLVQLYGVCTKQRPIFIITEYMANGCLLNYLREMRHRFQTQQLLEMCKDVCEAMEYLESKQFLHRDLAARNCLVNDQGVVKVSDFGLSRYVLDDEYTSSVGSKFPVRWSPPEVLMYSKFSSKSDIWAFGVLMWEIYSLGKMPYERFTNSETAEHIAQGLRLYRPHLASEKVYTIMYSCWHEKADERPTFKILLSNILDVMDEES
# [3] = target: Lck enzyme (Homo sapiens (Human), UniProt P06239); test: Lck enzyme activity (IMAP fluorescence polarization assay)
# Chain of Lck enzyme (P06239 whole entry): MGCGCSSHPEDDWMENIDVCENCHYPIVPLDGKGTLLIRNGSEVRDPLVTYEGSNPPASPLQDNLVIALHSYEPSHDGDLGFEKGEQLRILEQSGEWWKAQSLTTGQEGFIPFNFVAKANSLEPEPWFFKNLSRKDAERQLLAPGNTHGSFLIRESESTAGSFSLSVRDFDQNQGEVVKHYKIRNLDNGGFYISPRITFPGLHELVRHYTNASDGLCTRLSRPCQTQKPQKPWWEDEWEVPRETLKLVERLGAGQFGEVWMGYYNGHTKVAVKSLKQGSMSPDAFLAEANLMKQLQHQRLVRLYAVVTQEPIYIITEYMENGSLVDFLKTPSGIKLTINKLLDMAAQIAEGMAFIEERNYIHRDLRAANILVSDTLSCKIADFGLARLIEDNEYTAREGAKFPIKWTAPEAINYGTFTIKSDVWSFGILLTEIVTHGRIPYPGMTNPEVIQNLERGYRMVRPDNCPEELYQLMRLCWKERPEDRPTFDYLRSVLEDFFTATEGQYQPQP
# [4] = target: Src enzyme (Homo sapiens (Human), UniProt P12931); test: Src enzyme activity (IMAP fluorescence polarization assay)
# Chain of Src enzyme (P12931 whole entry, looked up): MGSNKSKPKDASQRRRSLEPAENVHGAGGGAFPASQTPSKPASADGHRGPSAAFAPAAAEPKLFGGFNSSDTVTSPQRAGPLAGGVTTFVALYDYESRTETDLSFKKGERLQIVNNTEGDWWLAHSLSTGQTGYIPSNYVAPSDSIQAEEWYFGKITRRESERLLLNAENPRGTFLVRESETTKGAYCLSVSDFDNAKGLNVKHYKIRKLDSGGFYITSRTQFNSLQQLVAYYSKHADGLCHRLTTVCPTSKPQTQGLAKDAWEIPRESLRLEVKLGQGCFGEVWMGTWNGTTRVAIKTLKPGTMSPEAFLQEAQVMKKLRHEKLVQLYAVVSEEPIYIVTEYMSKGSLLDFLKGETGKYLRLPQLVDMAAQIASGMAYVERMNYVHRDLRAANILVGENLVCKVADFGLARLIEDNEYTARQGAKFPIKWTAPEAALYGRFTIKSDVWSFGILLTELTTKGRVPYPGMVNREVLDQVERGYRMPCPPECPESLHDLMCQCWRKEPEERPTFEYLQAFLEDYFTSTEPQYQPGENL
# [5] = target: Lyn enzyme (Homo sapiens (Human), UniProt P07948); test: Lyn enzyme activity (IMAP fluorescence polarization assay)
# Chain of Lyn enzyme (P07948 whole entry): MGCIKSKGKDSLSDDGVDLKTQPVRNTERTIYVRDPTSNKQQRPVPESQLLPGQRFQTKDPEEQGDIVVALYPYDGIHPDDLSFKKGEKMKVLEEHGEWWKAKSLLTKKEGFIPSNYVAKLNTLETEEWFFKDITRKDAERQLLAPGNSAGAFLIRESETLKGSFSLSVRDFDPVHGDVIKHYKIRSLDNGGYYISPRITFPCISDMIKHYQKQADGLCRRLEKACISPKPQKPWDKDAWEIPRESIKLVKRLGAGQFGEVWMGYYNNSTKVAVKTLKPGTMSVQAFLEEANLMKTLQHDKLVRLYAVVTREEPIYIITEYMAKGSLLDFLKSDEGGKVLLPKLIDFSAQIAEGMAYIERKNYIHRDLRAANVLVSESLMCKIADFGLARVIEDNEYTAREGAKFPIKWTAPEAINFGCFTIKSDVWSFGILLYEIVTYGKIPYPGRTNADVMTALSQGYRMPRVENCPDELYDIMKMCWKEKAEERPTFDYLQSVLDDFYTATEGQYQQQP
# [6] = IMAP, 60 min pre-incubation, 5 μM ATP, bin bound in nM
# [7] = read-out: EC50 Lck activity values, IMAP, 60 min pre-incubation, 6 μM ATP, bin bound in μM
# [8] = read-out: EC50 Src activity values, IMAP, 60 min pre-incubation, 4 μM ATP
# [9] = read-out: EC50 Lyn activity values, 60 min pre-incubation, 2 μM ATP, bin bound in μM
# [10] = IMAP, 60 min pre-incubation, 5 μM ATP, bin bound in μM
# [11] = read-out: EC50 Btk activity values, IMAP, 60 min pre-incubation, 5 μM ATP, bin bound in nM
# [12] = EC50 Lyn activity values, 60 min pre-incubation, 2 μM ATP, bin bound in μM
# Chain of FynT enzyme (P06241 other isoform, or with tags, fused parts or gaps): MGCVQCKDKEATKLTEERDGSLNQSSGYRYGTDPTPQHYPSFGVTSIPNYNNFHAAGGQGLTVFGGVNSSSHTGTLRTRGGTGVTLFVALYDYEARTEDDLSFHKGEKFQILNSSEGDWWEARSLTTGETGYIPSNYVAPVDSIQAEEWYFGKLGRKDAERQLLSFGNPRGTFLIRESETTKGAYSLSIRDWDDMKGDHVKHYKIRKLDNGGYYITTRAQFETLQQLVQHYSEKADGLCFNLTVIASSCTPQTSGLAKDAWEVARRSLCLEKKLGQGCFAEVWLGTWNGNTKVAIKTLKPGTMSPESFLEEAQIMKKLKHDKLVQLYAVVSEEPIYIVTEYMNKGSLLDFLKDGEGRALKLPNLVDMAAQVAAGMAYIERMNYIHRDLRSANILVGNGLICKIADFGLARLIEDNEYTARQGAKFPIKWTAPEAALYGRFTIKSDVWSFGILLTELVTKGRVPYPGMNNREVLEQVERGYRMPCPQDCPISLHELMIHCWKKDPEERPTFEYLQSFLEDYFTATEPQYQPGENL
SMILES,EC50 [1] [nM],EC50 [2] [nM],"EC50 Btk activity values [2, 6] [nM]","EC50 [3, 7] [µM]","EC50 [4, 8] [nM]","EC50 [5, 9] [µM]","EC50 Btk activity values [2, 10] [nM]","EC50 [2, 11] [nM]","EC50 [5, 12] [µM]",EC50 [3] [µM],EC50 [4] [nM]
"CN(C)C/C=C/C(=O)NCc1nc(-c2ccc(C(=O)Nc3ccccn3)cc2)c2c(N)nccn12 [Example 69, (E)-4-(8-amino-3-((4-(dimethylamino)but-2-enamido)methyl)imidazo[1,5-a]pyrazin-1-yl)-N-(pyridin-2-yl)benzamide]",≥ 1000,10 to 100,<100,≥ 1,≥ 1000,≥ 1,,,,,
"Nc1nccn2c([C@@H]3CCCCN3C(=O)c3ccnc(Cl)n3)nc(-c3ccc(C(=O)Nc4cccnn4)cc3)c12 [Example 74, (S)-4-(8-amino-3-(1-(2-chloropyrimidine-4-carbonyl)piperidin-2-yl)imidazo[1,5-a]pyrazin-1-yl)-N-(pyridazin-3-yl)benzamide]",≥ 1000,100 to 1000,,≥ 1,≥ 1000,≥ 1,<1000,,,,
"CN(C)C/C=C/C(=O)N1CCC[C@H]1c1nc(-c2ccc(C(=O)Nc3ccccn3)cc2)c2c(N)nccn12 [Example 127, (S,E)-4-(8-amino-3-(1-(4-(dimethylamino)but-2-enoyl)pyrrolidin-2-yl)imidazo[1,5-a]pyrazin-1-yl)-N-(pyridin-2-yl)benzamide]",≥ 1000,,,≥ 1,≥ 1000,≥ 1,,,,,
"CCC#CC(=O)N1CCC[C@H]1c1nc(-c2ccc(C(=O)Nc3ccccn3)cc2)c2c(N)nccn12 [Example 34, (S)-4-(8-Amino-3-(1-pent-2-ynoylpyrrolidin-2-yl)imidazo[1,5-a]pyrazin-1-yl)-N-(pyridin-2-yl)benzamide]",≥ 1000,,,≥ 1,≥ 1000,≥ 1,,< 10,,,
"CC#CC(=O)N1CCC[C@H]1c1nc(-c2ccc(C(=O)Nc3ccccn3)c(OC)c2)c2c(N)nccn12 [Example 99, (S)-4-(8-amino-3-(1-but-2-ynoylpyrrolidin-2-yl)imidazo[1,5-a]pyrazin-1-yl)-2-methoxy-N-(pyridin-2-yl)benzamide]",≥ 1000,10 to 100,<100,≥ 1,≥ 1000,≥ 1,,,,,
"CC(C)(O)C#CC(=O)N1CCC[C@H]1c1nc(-c2ccc(C(=O)Nc3ccccn3)cc2)c2c(N)nccn12 [Example 32, (S)-4-(8-Amino-3-(1-(4-hydroxy-4-methylpent-2-ynoyl)pyrrolidin-2-yl)imidazo[1,5-a]pyrazin-1-yl)-N-(pyridin-2-yl)benzamide]",≥ 1000,,,≥ 1,≥ 1000,≥ 1,,< 10,,,
"CC#CC(=O)N1CCCC[C@H]1c1nc(-c2ccc(C(=O)Nc3cc(CCC)ccn3)c(F)c2)c2c(N)nccn12 [Example 67, (S)-4-(8-amino-3-(1-but-2-ynoylpiperidin-2-yl)imidazo[1,5-a]pyrazin-1-yl)-2-fluoro-N-(4-propylpyridin-2-yl)benzamide]",≥ 1000,,,≥ 1,≥ 1000,≥ 1,,< 10,,,
"CC#CC(=O)N1CCCC[C@H]1c1nc(-c2ccc(C(=O)Nc3nccc(C)n3)cc2)c2c(N)nccn12 [Example 89, (S)-4-(8-amino-3-(1-but-2-ynoylpiperidin-2-yl)imidazo[1,5-a]pyrazin-1-yl)-N-(4-methylpyrimidin-2-yl)benzamide]",≥ 1000,10 to 100,<100,≥ 1,≥ 1000,,,,≥ 1,,
"Cc1ccnc(NC(=O)c2ccc(-c3nc([C@@H]4CCCN4C(=O)c4ccnc(Cl)n4)n4ccnc(N)c34)cc2)c1 [Example 129, (S)-4-(8-amino-3-(1-(2-chloropyrimidine-4-carbonyl)pyrrolidin-2-yl)imidazo[1,5-a]pyrazin-1-yl)-N-(4-methylpyridin-2-yl)benzamide]",≥ 1000,,,≥ 1,≥ 1000,≥ 1,,< 10,,,
"COC/C=C/C(=O)N1CCC[C@H]1c1nc(-c2ccc(C(=O)Nc3cc(F)ccn3)cc2)c2c(N)nccn12 [Example 53, (S,E)-4-(8-amino-3-(1-(4-methoxybut-2-enoyl)pyrrolidin-2-yl)imidazo[1,5-a]pyrazin-1-yl)-N-(4-fluoropyridin-2-yl)benzamide]",≥ 1000,100 to 1000,,≥ 1,≥ 1000,≥ 1,<1000,,,,
"COC/C=C/C(=O)N1CCC[C@H]1c1nc(-c2ccc(C(=O)Nc3cc(C)ccn3)cc2)c2c(N)nccn12 [Example 57, (S,E)-4-(8-amino-3-(1-(4-methoxybut-2-enoyl)pyrrolidin-2-yl)imidazo[1,5-a]pyrazin-1-yl)-N-(4-methylpyridin-2-yl)benzamide]",≥ 1000,10 to 100,<100,≥ 1,≥ 1000,≥ 1,,,,,
"Nc1nccn2c([C@@H]3CCCCN3C(=O)c3ccnc(Cl)n3)nc(-c3ccc(C(=O)Nc4cc(F)ccn4)cc3)c12 [Example 80, (S)-4-(8-amino-3-(1-(2-chloropyrimidine-4-carbonyl)piperidin-2-yl)imidazo[1,5-a]pyrazin-1-yl)-N-(4-fluoropyridin-2-yl)benzamide]",≥ 1000,10 to 100,<100,≥ 1,≥ 1000,≥ 1,,,,,
"CCCC#CC(=O)N1CCC[C@H]1c1nc(-c2ccc(C(=O)Nc3ccccn3)cc2)c2c(N)nccn12 [Example 36, (S)-4-(8-Amino-3-(1-hex-2-ynoylpyrrolidin-2-yl)imidazo[1,5-a]pyrazin-1-yl)-N-(pyridin-2-yl)benzamide]",≥ 1000,,,≥ 1,≥ 1000,≥ 1,,< 10,,,
"COC/C=C/C(=O)N1CCC[C@H]1c1nc(-c2ccc(C(=O)Nc3cc(C(F)(F)F)ccn3)cc2)c2c(N)nccn12 [Example 128, (S,E)-4-(8-amino-3-(1-(4-methoxybut-2-enoyl)pyrrolidin-2-yl)imidazo[1,5-a]pyrazin-1-yl)-N-(4-(trifluoromethyl)pyridin-2-yl)benzamide]",≥ 1000,,,≥ 1,≥ 1000,≥ 1,,< 10,,,
"Nc1nccn2c([C@@H]3CCCN3C(=O)c3ccnc(Cl)n3)nc(-c3ccc(C(=O)Nc4ccccn4)c(F)c3)c12 [Example 84, (S)-4-(8-amino-3-(1-(2-chloropyrimidine-4-carbonyl)pyrrolidin-2-yl)imidazo[1,5-a]pyrazin-1-yl)-2-fluoro-N-(pyridin-2-yl)benzamide]",≥ 1000,10 to 100,<100,≥ 1,≥ 1000,≥ 1,,,,,
"CC#CC(=O)N1CCC[C@H]1c1nc(-c2ccc(C(=O)Nc3cc(C#N)ccn3)cc2)c2c(N)nccn12 [Example 130, (S)-4-(8-amino-3-(1-but-2-ynoylpyrrolidin-2-yl)imidazo[1,5-a]pyrazin-1-yl)-N-(4-cyanopyridin-2-yl)benzamide]",≥ 1000,,,≥ 1,≥ 1000,≥ 1,,< 10,,,
"C/C=C/C(=O)N1CCC[C@H]1c1nc(-c2ccc(C(=O)Nc3ccccn3)cc2)c2c(N)nccn12 [Example 93, (S,E)-4-(8-amino-3-(1-but-2-enoylpyrrolidin-2-yl)imidazo[1,5-a]pyrazin-1-yl)-N-(pyridin-2-yl)benzamide]",≥ 1000,,,,≥ 1000,≥ 1,,,,≥ 1,
"CN(C)C/C=C/C(=O)N1CCC[C@H]1c1nc(-c2ccc(C(=O)Nc3ccccn3)cc2)c2c(N)nccn12 [Example 3, (S,E)-4-(8-Amino-3-(1-(4-(dimethylamino)but-2-enoyl)pyrrolidin-2-yl)imidazo[1,5-a]pyrazin-1-yl)-N-(pyridin-2-yl)benzamide]",,,,,,,,< 10,,,
"CC#CC(=O)N1CCC[C@H]1c1nc(-c2ccc(C(=O)Nc3ccccn3)cc2)c2c(N)nccn12 [Example 6, (S)-4-(8-amino-3-(1-but-2-ynoylpyrrolidin-2-yl)imidazo[1,5-a]pyrazin-1-yl)-N-(pyridin-2-yl)benzamide]",≥ 1000,,,,,,,,≥ 1,≥ 1,≥ 1000
